Drawing on US20220125051A1, “PRE-HARVEST DESICCATION METHOD” (SYNGENTA CROP PROTECTION AG, priority 2019, published 2022), this text covers pest or weed control for seven molecules.

Holding throughout (test): Post-emergence efficacy, Method A
Assay type in all cases: in vivo

Assay [1] relates to Amaranthus palmeri (AMAPA). Particulars: Amaranthus palmeri, post-emergence, 312 h; Application rate 500 g/Ha; evaluated after 13 days; 100=total damage to plant, 0=no damage to plant; read-out: Control of weed species after post-emergence application, AMAPA. The gist of the method:
(§1)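 Plants raised 14 days from seed in standard soil in a glasshouse (24/16 °C day/night, 14 h light, 65% humidity) were sprayed with compound dissolved in acetone plus IF50 solvent/emulsifier (50 g/l solution), diluted with 0.25% or 1% Empicol ESC70 + 1% ammonium sulphate. Damage was scored visually after 13 days (0 = none, 100 = total).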

Assay [2] relates to Chenopodium album (CHEAL). Particulars: Chenopodium album, post-emergence, 312 h; Application rate 500 g/Ha; evaluated after 13 days; 100=total damage to plant, 0=no damage to plant; read-out: Control of weed species after post-emergence application, CHEAL. In a few lines: as §1
The subject of assay [3] is Digitaria sanguinalis (DIGSA). Particulars: Digitaria sanguinalis, post-emergence, 312 h; Application rate 500 g/Ha; evaluated after 13 days; 100=total damage to plant, 0=no damage to plant; read-out: Control of weed species after post-emergence application, DIGSA. The gist of the method: as §1
The subject of assay [4] is Echinochloa crus-galli (ECHCG). Particulars: Echinochloa crus-galli, post-emergence, 312 h; Application rate 500 g/Ha; evaluated after 13 days; 100=total damage to plant, 0=no damage to plant; read-out: Control of weed species after post-emergence application, ECHCG. In a few lines:
as §1

For a further assay, the system named is Eleusine indica (ELEIN). Particulars: Eleusine indica, post-emergence, 312 h; Application rate 500 g/Ha; evaluated after 13 days; 100=total damage to plant, 0=no damage to plant; read-out: Control of weed species after post-emergence application, ELEIN. The gist of the method:
as §1

In assay [5] the test system is Euphorbia heterophylla (EPHHL). Particulars: Euphorbia heterophylla, post-emergence, 312 h; Application rate 500 g/Ha; evaluated after 13 days; 100=total damage to plant, 0=no damage to plant; read-out: Control of weed species after post-emergence application, EPHHL. The gist of the method:
as §1

In assay [6] the test system is Ipomoea hederacea (IPOHE). Particulars: Ipomoea hederacea, post-emergence, 312 h, Application rate 500 g/Ha; evaluated after 13 days; 100=total damage to plant, 0=no damage to plant; read-out: Control of weed species after post-emergence application, IPOHE. The gist of the method: as §1
Another assay deals with Lolium perenne (LOLPE). Particulars: Lolium perenne, post-emergence, 312 h, Application rate 500 g/Ha; evaluated after 13 days; 100=total damage to plant, 0=no damage to plant; read-out: Control of weed species after post-emergence application, LOLPE. In a few lines:
as §1

In another assay the test system is Setaria faberi (SETFA). Particulars: Setaria faberi, post-emergence, 312 h; Application rate 500 g/Ha; evaluated after 13 days; 100=total damage to plant, 0=no damage to plant; read-out: Control of weed species after post-emergence application, SETFA. In a few lines:
as §1

Molecules are shown by their SMILES.

Consider `O=S(=O)([O-])CC[n+]1ccc(-c2ccc(F)cn2)cn1` [Compound A72], for which the pest or weed control at 500 g/ha in assay [1] stood at 60%; in assay [2], 40%; in assay [3], 30%; in assay [4] it was 40%; in the assay on Eleusine indica (ELEIN), 30%; in [5], 70%. Further, the values for the pest or weed control at 500 g/ha (in [6]; with Lolium perenne (LOLPE); with Setaria faberi (SETFA)) were 40%, 20% and 40%, respectively.
Take `O=C([O-])CC[n+]1ccc(-c2cccc(C(F)(F)F)n2)cn1` [Compound A73]: the pest or weed control at 500 g/ha was found to be 40% in [1]; 30% in assay [2]; 30% in [3]; 60% in assay [4]; 60% in the assay on Eleusine indica (ELEIN); 60% in assay [5]. Besides, the pest or weed control at 500 g/ha in [6] stood at 30%; with Lolium perenne (LOLPE) it was 40%; in the assay with Setaria faberi (SETFA), 60%.
Take `O=S(=O)([O-])CC[n+]1ccc(-c2cccc(C(F)(F)F)n2)cn1` [Compound A74]: the pest or weed control at 500 g/ha was 60% in assay [1]; 30% in assay [2]; 50% in assay [3]; 60% in [4]; 80% in the assay with Eleusine indica (ELEIN); 60% in assay [5]. Besides, the pest or weed control at 500 g/ha in [6] came out at 50%; in the assay with Lolium perenne (LOLPE), 60%; in the assay with Setaria faberi (SETFA), 80%.
For `Cc1cccc(-c2cc[n+](CCS(=O)(=O)[O-])nc2)n1` [Compound A75], the pest or weed control at 500 g/ha turned out to be 60% in [1]; 30% in assay [2]; 50% in assay [3]; 50% in [4]; 60% in the assay with Eleusine indica (ELEIN); 60% in assay [5]. Further, the pest or weed control at 500 g/ha in [6] stood at 20%; in the assay on Lolium perenne (LOLPE), 50%; with Setaria faberi (SETFA), 70%.
Turning to `COc1cc(OC)nc(-c2cc[n+](CCC(=O)[O-])nc2)n1` [Compound A76], the pest or weed control at 500 g/ha in [1] is 30%; in assay [2], 20%; in assay [3], 20%; in assay [4], 30%; with Eleusine indica (ELEIN) it was 30%; in assay [5] it was 30%. Further, the pest or weed control at 500 g/ha in assay [6] was found to be 20%; with Lolium perenne (LOLPE) it was 30%; in the assay with Setaria faberi (SETFA) it was 40%.
`COc1cnc(-c2cc[n+](CCCS(=O)(=O)[O-])nc2)cn1` [Compound A78]: the pest or weed control at 500 g/ha is 0% in assay [1]; 10% in [2]; 40% in assay [3]; 30% in assay [4]; 30% in the assay on Eleusine indica (ELEIN); 20% in assay [5]. In addition, the values for the pest or weed control at 500 g/ha (in assay [6]; in the assay on Lolium perenne (LOLPE); with Setaria faberi (SETFA)) were 20%, 20% and 40%, respectively.
As to `O=S(=O)([O-])CCC[n+]1ccc(-c2cnc(Cl)cn2)cn1` [Compound A79], the pest or weed control at 500 g/ha in assay [1] came out at 10%; in assay [2] it was 30%; in assay [3], 20%; in assay [4], 10%; in the assay on Eleusine indica (ELEIN), 20%; in assay [5], 10%. The pest or weed control at 500 g/ha in [6] was 0%; in the assay with Lolium perenne (LOLPE), 0%; in the assay on Setaria faberi (SETFA) it was 10%.
